≈ marks a conversion by molar mass, not a printed value. Like-named read-outs stand apart in the source and are kept apart here.
Tests used:
Type in all cases: cell-based
Yarrowia lipolytica = experiment: MIC100 microdilution assay against Yarrowia lipolytica
Procedure: In previous research we found a good correlation between MIC values against Yarrowia lipolytica and pathogenic Candida species.
Determination of MICs against Yarrowia lipolytica (DSMZ, Braunschweig, Germany) was carried out according to lit. Yarrowia lipolytica was cultivated in AC‐agar (Sigma Aldrich). Concentration of yeast cells was determined by photometer and adjusted to a turbidity of 0.5 according to McFarland standard at 600 nm. All substances were dissolved in DMSO or methanol.
Determination of MICs (minimal inhibitory concentration) against Yarrowia lipolytica was carried out according to Lit.^[13] Concentration of yeast cells was determined by photometer and adjusted to a turbitity of 0.5 according to McFarland Standard.

R. microsporus = experiment: MIC90 growth inhibition of molds (EUCAST), R. microsporus; settings: Rhizopus microsporus
Procedure: (§1) Determination of MICs (minimal inhibitory concentration) against Candida species was carried out according to the European Committee of Antifungal Susceptibility Testing. Concentration of yeast cells was determined by photometer and adjusted to a turbidity of 0.5 according to McFarland standard. MIC90 was determined by microdilution plate reader (Sunrise Tecan) at 450 nm, after 24 h incubation at 37°C. MIC90 was defined as the minimal concentration of chemical causing 90% growth inhibition, respectively. Growth inhibition of molds was determined by eye and microscopically, following EUCAST guidelines. All substances were dissolved in DMSO and diluted in RPMI 1640 medium, containing 2% glucose. All assays were carried out twice.

C. albicans = experiment: MIC90 microdilution (EUCAST), C. albicans; settings: Candida albicans, 24 h
Procedure: as §1

A. fumigatus (R7) = experiment: MIC90 growth inhibition of molds (EUCAST), A. fumigatus (R7); settings: Aspergillus fumigatus
Procedure: as §1

A. fumigatus (A65) = experiment: MIC90 growth inhibition of molds (EUCAST), A. fumigatus (A65); settings: Aspergillus fumigatus, RPMI 1640, 2% glucose, read by eye and microscopically
Procedure: Determination of MICs (minimal inhibitory concentration) against Candida species was carried out according to the European Committee of Antifungal Susceptibility Testing. Concentration of yeast cells was determined by photometer and adjusted to a turbidity of 0.5 according to McFarland standard. […] Growth inhibition of molds was determined by eye and microscopically, following EUCAST guidelines. […] All assays were carried out twice.

C. krusei = experiment: MIC90 microdilution (EUCAST), C. krusei; settings: Pichia kudriavzevii, 24 h
Procedure: as §1

A. fumigatus (R16) = experiment: MIC90 growth inhibition of molds (EUCAST), A. fumigatus (R16); settings: Aspergillus fumigatus
Procedure: as §1

C. glabrata = experiment: MIC90 microdilution (EUCAST), C. glabrata; settings: Nakaseomyces glabratus, 24 h
Procedure: as §1

R. arrhizus (oryzae) = experiment: MIC90 growth inhibition of molds (EUCAST), R. arrhizus (oryzae); settings: Rhizopus arrhizus
Procedure: as §1

[1] = 48 h, read-out: Biological Activity MIC Yarrowia lipolytica

| Compound | MIC (Yarrowia lipolytica; [1]) [µg/mL] | MIC (Yarrowia lipolytica; 48 h, read-out: MIC100) [µg/mL] | other results |
| --- | --- | --- | --- |
| CCCCCCCCN1CCC(N2CCc3ccccc3C2)CC1 [6b, 2‐(1‐Octylpiperidin‐4‐yl)‐1,2,3,4‐tetrahydroisoquinoline] | 100 | 100 |  |
| OC(Cn1cncn1)(Cn1cncn1)c1ccc(F)cc1F [FLZ, fluconazole, reference compound] |  |  | MIC90 (R. microsporus; R. microsporus, RPMI 1640, 2% glucose, read by eye and microscopically, read-out: MIC90): > 32 µg/mL; MIC90 (C. albicans; C. albicans, RPMI 1640, 2% glucose, 37°C, duplicate, read-out: MIC90): 0.25 µg/mL (≈ 0.816 µM); MIC90 (A. fumigatus (R7); A. fumigatus (R7), RPMI 1640, 2% glucose, read by eye and microscopically, read-out: MIC90): 16 µg/mL (≈ 52.2 µM); MIC90 (A. fumigatus (A65)): 32 µg/mL (≈ 104 µM); MIC90 (C. krusei; C. krusei, RPMI 1640, 2% glucose, 37°C, duplicate, read-out: MIC90): 8 µg/mL (≈ 26.1 µM); MIC90 (A. fumigatus (R16); A. fumigatus (R16), RPMI 1640, 2% glucose, read by eye and microscopically, read-out: MIC90): > 32 µg/mL; MIC90 (C. glabrata; C. glabrata, RPMI 1640, 2% glucose, 37°C, duplicate, read-out: MIC90): 16 µg/mL (≈ 52.2 µM); MIC90 (R. arrhizus (oryzae); R. arrhizus (oryzae), RPMI 1640, 2% glucose, read by eye and microscopically, read-out: MIC90): > 32 µg/mL |
| COc1cc2c(cc1OC)CN(C1CCNCC1)CC2 [4b, 6,7‐Dimethoxy‐2‐(piperidin‐4‐yl)‐1,2,3,4‐tetrahydroisoquinoline] | > 100 | > 100 |  |
| c1ccc(CN2CCC(N3CCc4ccccc4C3)CC2)cc1 [7a, 2‐(1‐Benzylpiperidin‐4‐yl)‐1,2,3,4‐tetrahydroisoquinoline] | > 100 | > 100 | MIC90 (R. microsporus): > 32 µg/mL; MIC90 (C. albicans): > 32 µg/mL; MIC90 (A. fumigatus (R7)): > 32 µg/mL; MIC90 (A. fumigatus (A65)): > 32 µg/mL; MIC90 (C. krusei): > 32 µg/mL; MIC90 (A. fumigatus (R16)): > 32 µg/mL; MIC90 (C. glabrata): > 32 µg/mL; MIC90 (R. arrhizus (oryzae)): > 32 µg/mL |
| CCCC(=O)N1CCC(N2CCC3CCCCC3C2)CC1 (racemic) [5g, (±)‐1‐[4‐(Octahydroisoquinolin‐2(1H)‐yl)‐piperidin‐1‐yl]‐butan‐1‐one] | > 100 | > 100 |  |
| CCCCCCCC(=O)N1CCC(N2CCC3CCCCC3C2)CC1 (racemic) [5h, (±)‐1‐[4‐(Octahydroisoquinolin‐2(1H)‐yl)piperidin‐1‐yl]octan‐1‐one] | > 100 | > 100 |  |
| Clc1ccccc1C(c1ccccc1)(c1ccccc1)n1ccnc1 [Clotrimazole, reference compound] |  |  | MIC (Yarrowia lipolytica; microdilution, 48 h, 25°C, 600 nm, read-out: MIC100): 0.4 µg/mL; MIC (Yarrowia lipolytica; microdilution, same value given in µM, read-out: MIC100 (molar value in brackets)): 1.2 µM |
| c1ccc(CN2CCC(N3CCC4CCCCC4C3)CC2)cc1 (centres unmarked) [7c, 2‐(1‐Benzylpiperidin‐4‐yl)decahydroisoquinoline] | > 100 | > 100 |  |
| CCCCCCCCCCCC(=O)N1CCC(N2CCC3CCCCC3C2)CC1 (racemic) [5i, (±)‐1‐[4‐(Octahydroisoquinolin‐2(1H)‐yl)‐piperidin‐1‐yl]‐dodecan‐1‐one] | > 100 | > 100 |  |
| COc1cc2c(cc1OC)CN(C1CCN(C(=O)OC(C)(C)C)CC1)CC2 [3b, tert‐Butyl 4‐(6,7‐dimethoxy‐3,4‐dihydroisoquinolin‐2(1H)‐yl)piperidine‐1‐carboxylate] | > 100 | > 100 |  |
| CCCCCCCC(=O)N1CCC(N2CCc3cc(OC)c(OC)cc3C2)CC1 [5e, 1‐[4‐(6,7‐Dimethoxy‐3,4‐dihydroisoquinolin‐2(1H)‐yl)‐piperidin‐1‐yl]‐octan‐1‐one] | > 100 | > 100 |  |
| CCCC(=O)N1CCC(N2CCc3cc(OC)c(OC)cc3C2)CC1 [5d, 1‐[4‐(6,7‐Dimethoxy‐3,4‐dihydroisoquinolin‐2(1H)‐yl)‐piperidin‐1‐yl]butan‐1‐one] | > 100 | > 100 |  |

Reference: paper PMC12531613, “Synthesis and Biological Evaluation of Novel 2‐(Piperidin‐4‐yl)‐1,2,3,4‐tetrahydroisoquinoline and 2‐(Piperidin‐4‐yl)decahydroisoquinoline Antimycotics” (Archiv Der Pharmazie, 2025)
